Measurements published in patent publication US11389456B2, “Compounds and methods for treating oxalate-related diseases” (OxaluRx, Inc., priority 2018, dated 2022).
pIC50: −log10 of the molar value. ≈ marks a conversion by molar mass, not a printed value.

Experiments:
[1] = target: recombinant full-length human hydroxyacid oxidase 1 (HAO1), the equivalent of hGOX (Homo sapiens (Human), UniProt Q9UJM8); assay: In-vitro human glycolate oxidase (hGOX) assay (Amplex red/HRP fluorescence); format: biochemical
Description: Biological Activity Assay: In-Vitro Human Glycolate Oxidase (hGOX) Assay
The in-vitro glycolate oxidase assay was performed using recombinant full-length human hydroxyacid oxidase 1 (HAO1), the equivalent of hGOX. […] Purified HAO1 was dissolved in assay buffer consisting of 10 mM NaCl, 110 mM KCl, 2 mM MgCl2, 50 mM HEPES (pH 7.4) and 0.01% Triton™ X-100.

[2] = Metabolic stability in human liver microsomal preparation; format: in vitro ADME; settings: pH 7.4, human liver microsomes, NADPH, 37° C.
Outline: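 Compound at 1.5 μM with 0.75 mg/mL human liver microsomes (concentrations before NADPH addition) in 0.1 M potassium phosphate, 1 mM EDTA, pH 7.4 was preincubated 5 min at 37 °C, then started with NADPH. Samples at 0, 5, 15, 30 and 45 min were quenched with acetonitrile/internal standard and analysed by LC/MS.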

[3] = Solubility in phosphate buffered saline (PBS), pH 7.4; format: physicochemical; settings: phosphate buffer (PBS), aqueous buffer, kinetic from dmso stock; phosphate buffered saline pH 7.4, 1% DMSO, 1 hour shaking at room temperature
Outline: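 DMSO stock (10 mM) diluted into 100 mM phosphate buffer pH 7.4, or into deionized distilled water for the aqueous assay, at 1% final DMSO and shaken 1 h at room temperature. After centrifugation, supernatants quantified by LC-MS/MS against a calibration curve with internal standard.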

[4] = test system: CD1 mice administered 1% ethylene glycol; assay: Mouse ethylene glycol model of hyperoxaluria, urinary oxalate; format: in vivo; settings: CD-1 mice, twice-daily oral gavage 50 mg/kg
Description: Mouse Models of Hyperoxaluria for Determining In Vivo Efficacy of hGOX Inhibitors
Male CD1 mice, 6-8 weeks of age (Charles River Labs, Wilmington, Mass.) were administered 1% ethylene glycol ad libitum their drinking water for 14 days. The mice were housed in individual cages, fed ad libitum and 24-h urine collections were initiated on days 1, 5, 9 and 14 using a 15-rack metabolic cage system equipped with a CCS2000 chiller system (Hatteras Instruments, Cary, N.C.) to maintain the samples at 4° C. during collection. Hydrochloric acid (100 μL of 6N) added to the collection vials to acidify the samples and prevent degradation of oxalate before evaluation.
Urine samples were maintained at 4° C. and urinary oxalate concentrations were determined within 24 hours of sample collection using a Trinity Biotech oxalate assay kit (Catalog #591-D). The assay was an enzymatic method based on the oxidation of oxalate by oxalate oxidase followed by measurement of hydrogen peroxide (H2O2) produced during the peroxidase-catalyzed reaction. Briefly, a 1-mL aliquot of each sample was diluted with an equal volume of assay diluent to bring the pH to between 5.0 and 7.0, then placed into purifier tubes (provided in the kit) and mixed for 5 min. The tubes were centrifuged for 5 min at 2000 rpm (1500×g) and the supernatants collected for the oxalate assay. The procedure was specific for oxalate with no special equipment and was easily adaptable for clinical automated analyzers. Each assay included a standard curve prepared with a standardized oxalate control sample (included in the kit) and internal assay control samples for both a normal (0.2-0.3 mmol/L) and elevated (0.86-1.21 mmol/L) level of oxalate.
To evaluate in vivo efficacy, mice were dosed by once-daily oral gavage of compound I-002 in an appropriate vehicle (e.g., phosphate-buffered saline, pH 7.4) at a dosage of 100 mg/kg. […]
The effect of example I-001 in the ethylene glycol model using CD-1 mice was evaluated by twice-daily, oral gavage dosing at 50 mg/kg for 6 days (days 5-11). […]

recombinant full-length human hydroxyacid oxidase 1 (HAO1), the equivalent of hGOX, sequence (Q9UJM8 whole entry): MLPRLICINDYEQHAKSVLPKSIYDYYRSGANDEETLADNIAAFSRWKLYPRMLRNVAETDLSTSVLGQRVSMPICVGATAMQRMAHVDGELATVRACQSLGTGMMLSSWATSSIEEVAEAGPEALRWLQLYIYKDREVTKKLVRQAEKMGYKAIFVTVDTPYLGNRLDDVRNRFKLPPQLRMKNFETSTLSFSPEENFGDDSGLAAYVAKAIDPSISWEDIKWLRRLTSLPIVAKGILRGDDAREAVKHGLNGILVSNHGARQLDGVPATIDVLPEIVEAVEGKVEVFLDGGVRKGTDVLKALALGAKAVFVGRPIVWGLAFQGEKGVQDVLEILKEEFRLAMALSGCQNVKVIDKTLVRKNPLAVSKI

- pIC50 [1]: 6.96
- CLint scaled at 1 μM [2]: 1.19 mL/min/kg
- half-life at 1 μM ([2]; 0-45 min, read-out: Metabolic Stability t1/2): 24.3 h
- solubility at 1 h [3]: 94.5 µM (≈ 24.1 µg/mL)
SMILES: O=C(O)c1nn[nH]c1Sc1ccc(Cl)cc1 [Example I-001, 5-((4-chlorophenyl)thio)-1H-1,2,3-triazole-4-carboxylic acid]
- decrease of total urinary oxalate values (μmole/24 hr/mL) ([4]; 24-hour urine collection after 3 days of drug treatment): 24%
- decrease of total urinary oxalate values (μmole/24 hr/mL) ([4]; 24-hour urine collection after 6 days of drug treatment): 32%
